The record followed here is ChEMBL document CHEMBL1759972, “Phenoxyacetic acids as PPARδ partial agonists: synthesis, optimization, and in vivo efficacy” (Bioorg Med Chem Lett, 2011).

In brackets after ≈: the same amount, converted by molar mass. Activity calls are given as the source filed them. The rule behind the calls is not given here.

Data set [1] deals with T1, Peroxisome proliferator-activated receptor alpha (Homo sapiens, UniProt Q07869).
T1 sequence (Q07869 whole entry): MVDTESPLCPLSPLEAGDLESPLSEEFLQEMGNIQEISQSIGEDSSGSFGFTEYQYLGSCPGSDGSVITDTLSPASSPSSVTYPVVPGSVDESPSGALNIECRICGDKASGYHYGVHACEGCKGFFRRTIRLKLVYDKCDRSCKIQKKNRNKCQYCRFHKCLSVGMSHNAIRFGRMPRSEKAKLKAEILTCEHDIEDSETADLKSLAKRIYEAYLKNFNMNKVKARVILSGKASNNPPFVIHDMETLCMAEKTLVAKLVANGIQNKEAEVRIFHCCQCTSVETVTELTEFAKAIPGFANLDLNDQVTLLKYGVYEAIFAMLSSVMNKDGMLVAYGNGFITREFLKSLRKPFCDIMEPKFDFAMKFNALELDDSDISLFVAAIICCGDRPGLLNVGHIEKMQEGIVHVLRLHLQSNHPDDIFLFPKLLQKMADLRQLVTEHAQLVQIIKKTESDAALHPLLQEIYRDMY
Kind of data set: Displacement of [3H]GW 2433 from human PPARalpha by scintillation proximity assay.

Data set [2] has as its system Mus musculus. The data set is described as follows: Dose normalized AUC (0 to 24 hrs) in CD mouse at 10 mg/kg, po. Details: time < 24 hr, dose 10 mg/kg, route oral. It counts as ADME, organism-based. Particulars: in vivo.
For data set [3], the target named is T2, Peroxisome proliferator-activated receptor delta (Homo sapiens, UniProt Q03181).
T2 sequence (Q03181 whole entry): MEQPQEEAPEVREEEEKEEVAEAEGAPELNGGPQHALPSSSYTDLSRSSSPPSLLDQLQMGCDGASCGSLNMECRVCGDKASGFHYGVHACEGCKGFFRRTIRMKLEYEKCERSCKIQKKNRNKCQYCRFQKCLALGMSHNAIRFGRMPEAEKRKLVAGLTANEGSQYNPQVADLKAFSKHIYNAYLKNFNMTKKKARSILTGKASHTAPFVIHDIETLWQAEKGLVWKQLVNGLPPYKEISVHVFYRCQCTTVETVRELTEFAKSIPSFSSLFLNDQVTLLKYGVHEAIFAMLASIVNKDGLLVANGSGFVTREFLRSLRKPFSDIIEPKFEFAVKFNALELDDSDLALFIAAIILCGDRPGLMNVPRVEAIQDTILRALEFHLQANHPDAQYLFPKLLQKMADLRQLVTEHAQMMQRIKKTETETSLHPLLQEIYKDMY
Description: Displacement of [3H]GW 2433 from human PPARdelta by scintillation proximity assay

The target in data set [4] is T2, Peroxisome proliferator-activated receptor delta. The source holds these as a separate data set.
Description: Partial agonist activity at human PPARdelta expressed in african green monkey CV1 cells transfected with Gal4 assessed as beta-galactosidase activity by transactivation assay
For data set [5], the target named is T3, Peroxisome proliferator-activated receptor gamma (Homo sapiens, UniProt P37231).
T3 sequence (P37231 whole entry): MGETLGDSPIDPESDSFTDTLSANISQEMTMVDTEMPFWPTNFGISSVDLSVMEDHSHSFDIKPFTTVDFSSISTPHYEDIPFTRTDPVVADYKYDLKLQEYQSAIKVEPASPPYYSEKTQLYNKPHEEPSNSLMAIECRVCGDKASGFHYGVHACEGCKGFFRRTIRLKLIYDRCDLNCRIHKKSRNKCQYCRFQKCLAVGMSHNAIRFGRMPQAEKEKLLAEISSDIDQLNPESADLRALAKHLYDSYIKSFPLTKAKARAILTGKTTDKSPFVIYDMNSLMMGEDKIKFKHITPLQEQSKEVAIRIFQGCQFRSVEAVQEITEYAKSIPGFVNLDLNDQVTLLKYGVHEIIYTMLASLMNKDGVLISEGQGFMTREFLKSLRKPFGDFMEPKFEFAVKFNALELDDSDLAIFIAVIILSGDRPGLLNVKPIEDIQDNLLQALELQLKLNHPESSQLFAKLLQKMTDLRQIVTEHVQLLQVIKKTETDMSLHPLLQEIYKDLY
Description: Displacement of [3H]GW 2433 from human PPARgamma by scintillation proximity assay

Data set [6] concerns the target T2, Peroxisome proliferator-activated receptor delta. The data set is described as follows: Induction of human PPARdelta-mediated CPT1a gene expression in human skeletal muscle. The data set is classed as tissue-based, Muscle tissue.
Data set [7] has the same target. The data set is described as follows: Induction of human PPARdelta-mediated PDK4 gene expression in human skeletal muscle. The data set is classed as tissue-based, Muscle tissue.
Data set [8] can be described thus: Aqueous solubility of the compound. It counts as physicochemical.
The nature of data set [9]: Permeability across artificial membrane. Particulars: PAMPA; read-out: permeability. It counts as ADME.
Another data set addresses T4, Cytochrome P450 1A2 (Homo sapiens, UniProt P05177).
T4 sequence (P05177 whole entry): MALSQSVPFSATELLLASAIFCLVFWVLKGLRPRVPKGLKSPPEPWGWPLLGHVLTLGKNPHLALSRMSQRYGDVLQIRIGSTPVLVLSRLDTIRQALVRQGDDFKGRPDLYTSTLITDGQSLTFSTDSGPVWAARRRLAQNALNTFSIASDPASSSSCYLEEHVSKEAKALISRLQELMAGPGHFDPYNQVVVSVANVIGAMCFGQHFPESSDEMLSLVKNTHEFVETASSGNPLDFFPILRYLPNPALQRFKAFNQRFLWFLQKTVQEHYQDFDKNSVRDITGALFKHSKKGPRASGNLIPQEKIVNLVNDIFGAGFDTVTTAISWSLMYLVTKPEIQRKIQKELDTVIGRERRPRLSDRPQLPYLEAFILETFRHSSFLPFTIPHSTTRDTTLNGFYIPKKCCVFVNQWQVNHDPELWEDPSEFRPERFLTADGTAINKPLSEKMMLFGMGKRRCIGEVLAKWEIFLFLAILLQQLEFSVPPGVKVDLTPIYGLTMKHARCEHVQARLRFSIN
Kind of data set: Inhibition of CYP1A2. It counts as ADME.

In another data set the target is Cytochrome P450 2C19 (Homo sapiens, UniProt P33261). Kind of data set: Inhibition of CYP2C19. It counts as ADME.
Sequence of Cytochrome P450 2C19 (P33261 whole entry): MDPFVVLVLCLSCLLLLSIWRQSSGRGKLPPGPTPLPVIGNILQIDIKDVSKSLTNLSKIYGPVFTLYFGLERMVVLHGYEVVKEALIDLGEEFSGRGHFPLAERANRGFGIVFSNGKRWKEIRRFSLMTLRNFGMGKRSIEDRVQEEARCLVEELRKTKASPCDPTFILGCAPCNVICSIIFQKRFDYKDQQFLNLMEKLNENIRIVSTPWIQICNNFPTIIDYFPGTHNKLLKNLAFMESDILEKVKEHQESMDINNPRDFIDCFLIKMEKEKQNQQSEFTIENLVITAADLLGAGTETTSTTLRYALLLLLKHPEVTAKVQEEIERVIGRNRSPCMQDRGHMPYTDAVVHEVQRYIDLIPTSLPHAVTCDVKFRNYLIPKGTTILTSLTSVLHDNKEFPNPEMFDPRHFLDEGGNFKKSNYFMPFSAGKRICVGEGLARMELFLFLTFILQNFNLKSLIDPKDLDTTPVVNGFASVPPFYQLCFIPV
In a further data set the target is Cytochrome P450 2D6 (Homo sapiens, UniProt P10635). The data set is described as follows: Inhibition of CYP2D6. The data set is classed as ADME.
Sequence of Cytochrome P450 2D6 (P10635 whole entry): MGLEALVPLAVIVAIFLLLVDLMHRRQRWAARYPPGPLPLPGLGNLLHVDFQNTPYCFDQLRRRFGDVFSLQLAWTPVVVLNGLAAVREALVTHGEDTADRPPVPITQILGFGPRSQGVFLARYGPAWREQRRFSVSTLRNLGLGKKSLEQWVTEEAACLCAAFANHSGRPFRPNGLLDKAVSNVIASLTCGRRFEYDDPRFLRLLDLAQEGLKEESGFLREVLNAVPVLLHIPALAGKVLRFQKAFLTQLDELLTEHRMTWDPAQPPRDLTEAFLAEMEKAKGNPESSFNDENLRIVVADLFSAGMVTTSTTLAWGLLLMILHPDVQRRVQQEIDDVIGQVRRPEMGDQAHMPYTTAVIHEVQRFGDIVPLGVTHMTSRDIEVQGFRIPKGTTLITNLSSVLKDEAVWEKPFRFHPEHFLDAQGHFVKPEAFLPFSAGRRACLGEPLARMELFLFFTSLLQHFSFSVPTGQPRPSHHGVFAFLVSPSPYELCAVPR
The target in another data set is Cytochrome P450 3A4 (Homo sapiens, UniProt P08684). The data set is described as follows: Inhibition of CYP3A4. It counts as ADME.
Sequence of Cytochrome P450 3A4 (P08684 whole entry): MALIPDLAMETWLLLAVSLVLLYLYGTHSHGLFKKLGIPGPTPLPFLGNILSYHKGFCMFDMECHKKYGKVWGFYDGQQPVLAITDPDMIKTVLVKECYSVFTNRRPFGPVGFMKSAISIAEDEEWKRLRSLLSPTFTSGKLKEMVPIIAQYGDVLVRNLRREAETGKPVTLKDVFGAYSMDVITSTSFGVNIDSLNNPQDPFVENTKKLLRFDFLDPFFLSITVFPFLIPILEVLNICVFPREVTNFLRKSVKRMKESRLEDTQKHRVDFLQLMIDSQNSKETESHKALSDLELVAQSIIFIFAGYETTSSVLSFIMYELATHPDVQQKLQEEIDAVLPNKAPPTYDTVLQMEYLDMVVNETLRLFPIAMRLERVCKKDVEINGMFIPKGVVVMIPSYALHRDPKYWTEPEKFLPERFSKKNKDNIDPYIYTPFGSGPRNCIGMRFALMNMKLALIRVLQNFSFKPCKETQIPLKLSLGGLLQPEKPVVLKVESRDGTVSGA
Another data set addresses Cytochrome P450 2C9 (Homo sapiens, UniProt P11712). Kind of data set: Inhibition of CYP2C9. The data set is classed as ADME.
The next data set has as its system Liver microsomes. Kind of data set: Intrinsic clearance in human liver microsomes. The data set is classed as ADME, Microsome.
A short description of data set [10]: AUC (0 to infinity) in CD mouse at 10 mg/kg, po. It counts as ADME, organism-based. Details: time infinity, dose 10 mg/kg, route oral. The note with it: plasma.
The nature of data set [11]: Half life in CD mouse at 10 mg/kg, po. It counts as ADME, organism-based. Also noted: dose 10 mg/kg, route oral. The note with it: in vivo.
In data set [12] the test system is Mus musculus. The data set is described as follows: Antidiabetic activity in fasting insulin-resistant ob/ob mouse assessed as decrease in body weight gain at 100 mg/kg, po administered once daily for 15 days. It counts as functional, organism-based. Also noted: dose 100 mg/kg.
The subject of data set [13] is Mus musculus. Kind of data set: Antidiabetic activity in po dosed fasting insulin-resistant ob/ob mouse assessed as improvement in glucose sensitivity administered once daily for 15 days measured on day 12 of dosing by OGTT method. It counts as functional, organism-based.
Data set [14] concerns Mus musculus. Kind of data set: Antidiabetic activity in fasting insulin-resistant ob/ob mouse assessed as improvement in glucose sensitivity at 30 mg/kg, po administered once daily for 15 days measured on day 12 of dosing by OGTT method. It counts as functional, organism-based. Also noted: dose 30 mg/kg.

Sequence of Cytochrome P450 2C9 (P11712 whole entry): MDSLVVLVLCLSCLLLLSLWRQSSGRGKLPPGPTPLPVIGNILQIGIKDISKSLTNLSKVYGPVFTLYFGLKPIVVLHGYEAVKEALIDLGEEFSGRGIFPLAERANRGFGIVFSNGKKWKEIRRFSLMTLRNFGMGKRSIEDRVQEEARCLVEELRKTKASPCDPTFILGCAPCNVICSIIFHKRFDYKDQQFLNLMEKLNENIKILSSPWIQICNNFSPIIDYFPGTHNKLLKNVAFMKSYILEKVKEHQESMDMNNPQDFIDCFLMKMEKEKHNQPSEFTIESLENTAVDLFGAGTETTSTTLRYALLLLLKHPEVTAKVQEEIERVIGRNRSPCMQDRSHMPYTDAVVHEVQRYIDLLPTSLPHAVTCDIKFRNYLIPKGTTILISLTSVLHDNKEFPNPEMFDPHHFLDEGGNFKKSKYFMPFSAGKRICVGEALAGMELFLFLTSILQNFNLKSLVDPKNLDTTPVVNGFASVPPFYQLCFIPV

Take `CCCCN(c1cccc(-c2ccc(Cl)cc2)c1C)S(=O)(=O)c1ccc(OC(C)C(=O)O)c(C)c1C` (stereo not given): the values for the half-maximal inhibitory concentration (IC50) in data set [1] and in [3] were 20 µM and 50.1 nM, respectively. In the data set with Mus musculus [2], this molecule showed an AUC of 575 ng·h/mL/mg/kg. Also, the EC50 in [4] is 25.1 nM.

For the molecule `CCCCN(c1cccc(-c2ccc(C(F)(F)F)cc2)c1Cl)S(=O)(=O)c1ccc(OC(C)C(=O)O)c(C)c1C` (stereo not given), the IC50 in data set [1] was 7.94 µM; in [5] it was 6.31 µM; against Cytochrome P450 1A2 it was > 3.16 µM; at Cytochrome P450 2C19, > 3.16 µM; against Cytochrome P450 2D6, > 3.16 µM; at Cytochrome P450 3A4, > 3.16 µM. In addition, the values for the IC50 (against Cytochrome P450 2C9; in data set [3]) were 794 nM and 6.31 nM, respectively. In addition, the 50% effective concentration (EC50) in data set [6] was 3.98 nM; in data set [7] it was 10 nM; in data set [4] it was 2.51 nM. The molecule also returned a solubility in data set [8] of 140 µM (≈ 81.8 µg/mL). Besides, the Papp in [9] stood at 25 ×10⁻⁶ cm/s. The CL in the data set on Liver microsomes is 0.018 mL/min/mg. The AUC(0-inf) in data set [10] stood at 2480 ng·h/mL. The half-life in data set [11] was 258 min. For the same molecule, the result in the data set on Mus musculus [12] and in the data set with Mus musculus [14] was Active. Besides, the Activity result in the data set with Mus musculus [13] was “Dose-dependent effect”.

With `CCCCN(c1cc(-c2ccc(Cl)cc2)ccc1OC(F)(F)F)S(=O)(=O)c1ccc(OC(C)C(=O)O)c(C)c1C` (stereo not given), the IC50 in [1] is 12.6 µM; in data set [5], 10 µM; in data set [3], 3160 nM. The molecule further showed a half-maximal effective concentration (EC50) in data set [4] of 1000 nM.

Take `CCCCN(c1cc(-c2ccc(Cl)cc2)c(F)cc1F)S(=O)(=O)c1ccc(OC(C)C(=O)O)c(C)c1C` (stereo not given): the concentration for half-maximal inhibition (IC50) was 10 µM in [1], 1.58 µM in [5] and 3160 nM in data set [3]. For the same molecule, in [4], a half-maximal effect (EC50) was put at 1260 nM.

In the case of `CCCCN(c1cccc(-c2ccc(OC(F)(F)F)cc2)c1Cl)S(=O)(=O)c1ccc(OC(C)C(=O)O)c(C)c1C` (stereo not given), the IC50 is 10 µM in data set [1]; 6.31 µM in data set [5]; > 3.16 µM against Cytochrome P450 1A2; > 3.16 µM against Cytochrome P450 2C19; > 3.16 µM against Cytochrome P450 2D6; > 3.16 µM on Cytochrome P450 3A4. Also, the IC50 at Cytochrome P450 2C9 was 794 nM; in data set [3], 15.8 nM. The EC50 is 10 nM in data set [6], 25.1 nM in [7] and 2.51 nM in data set [4]. Further, the concentration in solution in data set [8] (solubility) was 140 µM (≈ 84 µg/mL). In addition, the Papp in data set [9] was found to be 25 ×10⁻⁶ cm/s. For the same molecule, the CL in the data set with Liver microsomes was 0.028 mL/min/mg. Further, the AUC(0-inf) in [10] amounted to 5870 ng·h/mL. In data set [11], this molecule showed a half-life of 324 min. Besides, the outcome with Mus musculus [12] and with Mus musculus [14] was Active. Further, the Activity result with Mus musculus [13] is “Dose-dependent effect”.
